Tests used:
[1] = target: WRN helicase (core helicase motif aa N517-P1238) (Homo sapiens (Human), UniProt Q14191); test: WRN ATPase assay (ADP-Glo), DNA dependent ATP hydrolysis; format: biochemical; conditions: 3 hours pre-incubation, 300 micromolar ATP, FLAP26 ssDNA; geometric means of at least 2 determinations
From the text: An ATPase assay was set up to measure the DNA dependent ATP hydrolysis activity of WRN helicase. This assay was used also to assess the inhibition properties of compounds of the invention on DNA dependent WRN ATPase activity.
The core helicase motif of the WRN protein (aa N517-P1238) was produced for this assay (protein production as described above). A 45 oligonucleotide sequence called “FLAP26” as described by Brosh et al., 2009, DOI: 10.1074/jbc.M111446200 ([…]; SEQ ID NO: 2) was purchased from IDT (Integrated DNA Technologies, Leuven, Belgium) and used as single strand DNA substrate. The ADP-Glo assay kit (Promega, Madison, WI) allowing the quantification of ADP produced in ATP hydrolysis reactions was used for setting up this assay. Time course experiments were first performed in order to determine the best enzymatic assay conditions (including buffer conditions, reaction time and concentrations of protein, ATP and DNA substrates). A typical reaction consists of 10 nM WRN protein, 0.2 nM FLAP26, and 300 micromolar ATP in the following assay buffer: 30 mM Tris pH7.5, 2 mM MgCl2, 0.02% BSA, 50 mM NaCl, 0.1% pluronic F127 prepared in DNAse free water.
To evaluate the inhibition properties of compounds of the invention, serial dilutions were prepared in DMSO (10 half log dilutions from a 10 mM DMSO solution). 50 nanoliters of each concentration was pre-incubated for 3 hours in a 384 small volume assay plate (Greiner #784075) with 2.5 microliters of a 20 nM WRN helicase protein in assay buffer with 600 micromolar ATP. Control wells were included with a “high control” (no inhibition), containing DMSO with no test compound, and “low controls” (maximal inhibition), containing buffer without protein. The reaction was started by addition of 2.5 microliters of FLAP26 at 0.4 nM and incubated for 30 minutes at room temperature. The reaction was stopped with the addition of 5 microliters of the first ADP-Glo reagent and incubated for one hour to remove the excess amount of ATP. Afterwards, 10 microliters of ATP detection reagent was added and incubated for an additional hour before reading. Luminescence output was recorded using Tecan 1000 reader, with 5 minutes delay before reading. Each concentration of compound was tested in duplicates in the assay plate.
Data analysis was carried out using an in-house developed software (Novartis Helios software application, Novartis Institutes for BioMedical Research, unpublished) using the methods described by Formenko et al., 2006, DOI: 10.1016/j.cmpb.2006.01.008. Following normalization of activity values for the wells to % inhibition (% inhibition=[(high control-sample)/(high control-low control)]×100), IC50 fitting was carried out from the duplicate determinations present on each plate according to [4]. Data analysis can also be carried out using commercially available software designed to derive IC50 values using 4-parameter fits (e.g. GraphPad Prism, XL fit). The reported IC50 values are the geometrical means of at least 2 independent replicates.

[2] = tested on: SW48 cells; test: Proliferation assay SW48 (CellTiterGlo, 96 hours); format: cell-based; conditions: Homo sapiens
From the text: (§1) The colon carcinoma cell lines SW48 (RRID: CVCL_1724), HCT 116 (RRID: CVCL_0291) and SNU-407 (RRID: CVCL_5058) were obtained from ATCC. The WRN-knockdown insensitive colon carcinoma cell line DLD-1 (RRID: CVCL_0248) was obtained from the Korean Cell Line Bank (KCLB), and used to generate a derivative in which the endogenous WRN gene copies were knocked out by CRISPR-mediated editing using standard CRISPR methods. The resulting cell line, DLD1-WRN-KO, was used to assess potential off-target compound effects.
(§2) SW48, SNU-407 and DLD1-WRN-KO cells were cultured in growth medium composed of RPMI-1640 (Amimed Cat #1-41F22-1), 2 mM L-Glutamine (Amimed Cat #5-10K50), 10 mM HEPES (Gibco Cat #15630-056), 1 mM sodium pyruvate (Amimed Cat #5-60F00-H), 1× Penicillin-Streptomycin (Amimed Cat #4-01F00-H) and 10% fetal calf serum (Amimed Cat #2-01F30-G, Lot #LB11566P). HCT 116 cells were cultured in growth medium composed of McCoys 5A (Amimed catalog #1-18F01-1), 2 mM L-Glutamine (Amimed Cat #5-10K50), 1× Penicillin-Streptomycin (Amimed Cat #4-01F00-H) and 10% fetal calf serum (Amimed Cat #2-01F30-G, Lot #LB11566P). All cells were maintained at 37° C. in a humidified 5% CO2 incubator.
(§3) Following filtration through a Steriflip-NY 20 μm filter (Millipore Cat #SCNY00020), trypsinized cells were seeded in 100 microliters growth medium at 2′000 (SW48) or 1′500 (SNU-407, DLD1-WRN-KO, HCT 116) cells/well into white, clear-bottom 96-well plates (Costar Cat #3903). Three replicate plates were prepared for each compound treatment condition. In addition, one plate (termed “day 0”) was prepared to quantify the number of viable cells at the time of compound addition. Following overnight incubation at 37° C. in a humidified 5% CO2 atmosphere, eight 3-fold serial dilutions of a given compound stock (obtained at a concentration of 10 mM in DMSO and stored at 4° C.) were dispensed directly into each of the triplicate assay plates using a HP 300D non-contact Digital Dispenser (TECAN). The final concentration of DMSO was normalized to 0.1% in all wells. 96 hours after compound addition, cellular ATP levels as a surrogate for cell viability was assessed following addition of 50 microliters CellTiterGlo (Promega Cat #G7573) reagent and luminescence quantification on a MPLEX multi-mode plate-reader (TECAN) following a 10 minute incubation at room temperature. The number of viable cells in the “day 0” plate were quantified identically on the day of compound addition.
(§4) For data analysis, the assay background signal that was determined in wells containing medium, but no cells, was subtracted from all other data points prior to further calculations. The extent of growth inhibition and potential cell kill was assessed by comparing the ATP levels (measured using CellTiterGlo, Promega) in compound-treated cells with those present at the time of compound addition. To this end, the following conditional concept was programmatically applied in HELIOS, an in-house software applying a multi-step decision tree to arrive at optimal concentration response curve fits (Gubler et al, SLAS DOI: 10.1177/2472555217752140) to calculate % growth (% G) for each compound-treated well: % G=(T−V0)/V0))*100 when T<V0, and % G=(T−V0)/(V−V0)))*100 when T>V0, where V0 is the viability level at time of compound addition, while V and T represent vehicle-control and compound-treated viability levels, respectively, at the end of the compound incubation. 100%, 0% and −100% signify absence of growth inhibition, growth stasis, and complete cell kill, respectively. Compound concentrations leading to half-maximal growth inhibition (G150) and residual cell viability at the highest tested compound concentration (Data (cmax), expressed in percent) were routinely calculated. Data analysis can also be carried out using commercially available software designed to derive IC50 values using 4-parameter fits (e.g. GraphPad Prism, XL fit). […]

[3] = tested on: DLD1-WRN-KO cells; test: Proliferation assay DLD1-WRN-KO (CellTiterGlo, 96 hours), off-target effects; format: cell-based; conditions: Homo sapiens
From the text: as §1, §2, §3, §4

WRN helicase (core helicase motif aa N517-P1238), sequence (Q14191 517-1238): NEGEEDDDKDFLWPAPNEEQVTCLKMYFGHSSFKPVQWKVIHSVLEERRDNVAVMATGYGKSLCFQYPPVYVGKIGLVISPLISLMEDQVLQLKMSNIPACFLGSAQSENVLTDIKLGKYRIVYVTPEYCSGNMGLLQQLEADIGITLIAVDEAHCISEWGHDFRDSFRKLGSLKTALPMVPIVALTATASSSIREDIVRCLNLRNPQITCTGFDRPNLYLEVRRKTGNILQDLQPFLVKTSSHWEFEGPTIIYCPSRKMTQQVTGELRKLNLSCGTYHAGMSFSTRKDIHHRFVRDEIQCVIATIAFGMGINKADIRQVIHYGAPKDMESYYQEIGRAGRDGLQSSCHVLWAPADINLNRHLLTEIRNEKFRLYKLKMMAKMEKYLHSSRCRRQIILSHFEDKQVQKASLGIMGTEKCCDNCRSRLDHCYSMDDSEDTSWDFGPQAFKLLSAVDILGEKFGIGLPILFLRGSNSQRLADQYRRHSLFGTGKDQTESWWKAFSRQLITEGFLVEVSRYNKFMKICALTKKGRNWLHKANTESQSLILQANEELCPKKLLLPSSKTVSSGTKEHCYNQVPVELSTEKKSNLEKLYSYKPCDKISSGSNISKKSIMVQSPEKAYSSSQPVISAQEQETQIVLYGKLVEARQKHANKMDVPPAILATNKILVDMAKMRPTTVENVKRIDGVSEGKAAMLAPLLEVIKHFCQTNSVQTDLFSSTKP

SMILES	IC50 [1] [µM]	GI50 [2] [µM]	GI50 [3] [µM]
C[C@@H]1C[C@H](C(=O)Nc2ccc(C(F)(F)F)cc2Cl)n2c1c(N1CCN(C(=O)c3nccc(Cl)c3O)CC1)c(=O)n1nc(N3CCOCC3)nc21 [Example 1A, (7R,9R)-6-(4-(4-chloro-3-hydroxypicolinoyl)piperazin-1-yl)-N-(2-chloro-4-(trifluoromethyl)phenyl)-7-methyl-2-morpholino-5-oxo-5,7,8,9-tetrahydropyrrolo[1,2-c][1,2,4]triazolo[1,5-a]pyrimidine-9-carboxamide]	0.02	0.04	> 10
C[C@H]1C[C@@H](C(=O)Nc2ccc(C(F)(F)F)cc2Cl)n2c1c(N1CCN(C(=O)c3nccc(Cl)c3O)CC1)c(=O)n1nc(N3CCOCC3)nc21 [Example 1B, (7S,9S)-6-(4-(4-chloro-3-hydroxypicolinoyl)piperazin-1-yl)-N-(2-chloro-4-(trifluoromethyl)phenyl)-7-methyl-2-morpholino-5-oxo-5,7,8,9-tetrahydropyrrolo[1,2-c][1,2,4]triazolo[1,5-a]pyrimidine-9-carboxamide]	7	9	> 10
C[C@H]1C[C@H](C(=O)Nc2ccc(C(F)(F)F)cc2Cl)n2c1c(N1CCN(C(=O)c3nccc(Cl)c3O)CC1)c(=O)n1nc(N3CCOCC3)nc21 [Example 1C, (7S,9R)-6-(4-(4-chloro-3-hydroxypicolinoyl)piperazin-1-yl)-N-(2-chloro-4-(trifluoromethyl)phenyl)-7-methyl-2-morpholino-5-oxo-5,7,8,9-tetrahydropyrrolo[1,2-c][1,2,4]triazolo[1,5-a]pyrimidine-9-carboxamide]	0.04	0.5	> 10
C[C@@H]1C[C@@H](C(=O)Nc2ccc(C(F)(F)F)cc2Cl)n2c1c(N1CCN(C(=O)c3nccc(Cl)c3O)CC1)c(=O)n1nc(N3CCOCC3)nc21 [Example 1D, (7R,9S)-6-(4-(4-chloro-3-hydroxypicolinoyl)piperazin-1-yl)-N-(2-chloro-4-(trifluoromethyl)phenyl)-7-methyl-2-morpholino-5-oxo-5,7,8,9-tetrahydropyrrolo[1,2-c][1,2,4]triazolo[1,5-a]pyrimidine-9-carboxamide]	3	5	> 10
Cc1ncnc(C(=O)N2CCN(c3c4n(c5nc(N6CCOCC6)nn5c3=O)[C@@H](C(=O)Nc3ccc(C(F)(F)F)cc3Cl)C[C@H]4C)CC2)c1O [Example 2A, (7R,9R)—N-(2-chloro-4-(trifluoromethyl)phenyl)-6-(4-(5-hydroxy-6-methylpyrimidine-4-carbonyl)piperazin-1-yl)-7-methyl-2-morpholino-5-oxo-5,7,8,9-tetrahydropyrrolo[1,2-c][1,2,4]triazolo[1,5-a]pyrimidine-9-carboxamide]	0.02	0.04	> 10
Cc1cc(C(F)(F)F)ccc1NC(=O)[C@@H]1CCc2c(N3CCN(C(=O)c4nccc(Cl)c4O)CC3)c(=O)n3nc(C4=CCOCC4)nc3n21 [Example 19B, (S)-6-(4-(4-chloro-3-hydroxypicolinoyl)piperazin-1-yl)-2-(3,6-dihydro-2H-pyran-4-yl)-N-(2-methyl-4-(trifluoromethyl)phenyl)-5-oxo-5,7,8,9-tetrahydropyrrolo[1,2-c][1,2,4]triazolo[1,5-a]pyrimidine-9-carboxamide]	44		

Second part, the compound after the results:

IC50 [1] [µM]	GI50 [2] [µM]	GI50 [3] [µM]	SMILES
0.7	6	> 10	CC(=O)N1CCN(c2c3n(c4nc(-c5ccccc5)nn4c2=O)C(C(=O)Nc2ccc(C(F)(F)F)cc2)CC3)CC1 (racemic) [Example 22, rac-6-(4-acetylpiperazin-1-yl)-5-oxo-2-phenyl-N-(4-(trifluoromethyl)phenyl)-5,7,8,9-tetrahydropyrrolo[1,2-c][1,2,4]triazolo[1,5-a]pyrimidine-9-carboxamide]
2	4	> 10	CC(=O)N1CCN(c2c3n(c4nc(C5=CCOCC5)nn4c2=O)C(C(=O)Nc2ccc(C(F)(F)F)cc2)CC3)CC1 (racemic) [Example 24, rac-6-(4-acetylpiperazin-1-yl)-2-(3,6-dihydro-2H-pyran-4-yl)-5-oxo-N-(4-(trifluoromethyl)phenyl)-5,7,8,9-tetrahydropyrrolo[1,2-c][1,2,4]triazolo[1,5-a]pyrimidine-9-carboxamide]
> 100			CC(=O)N1CCN(c2c3n(c4nc(-c5ccccc5)nn4c2=O)[C@H](C(=O)Nc2ccc(C(F)(F)F)cc2)CC3)CC1 [Example 22B, (S)-6-(4-acetylpiperazin-1-yl)-5-oxo-2-phenyl-N-(4-(trifluoromethyl)phenyl)-5,7,8,9-tetrahydropyrrolo[1,2-c][1,2,4]triazolo[1,5-a]pyrimidine-9-carboxamide]
	0.01	> 10	Cc1ncnc(C(=O)N2CCN(c3c4n(c5nc(C6=CC(=O)OCC6)nn5c3=O)[C@@H](C(=O)Nc3ccc(C(F)(F)F)cc3Cl)C[C@H]4C)[C@H]3CC[C@@H]32)c1O [Example 25, (7R,9R)—N-(2-chloro-4-(trifluoromethyl)phenyl)-6-((1S,6S)-5-(5-hydroxy-6-methylpyrimidine-4-carbonyl)-2,5-diazabicyclo[4.2.0]octan-2-yl)-7-methyl-5-oxo-2-(6-oxo-3,6-dihydro-2H-pyran-4-yl)-5,7,8,9-tetrahydropyrrolo[1,2-c][1,2,4]triazolo[1,5-a]pyrimidine-9-carboxamide]

— US20240245694A1, “Tricyclic Compounds and their Uses” (Novartis AG, priority 2022, published 2024)
